Data: patent publication US20060141620A1, “System and method for forming a cardiac tissue construct” (The Regents of the University of Michigan, priority 2004, published 2006)

Columns and labels:
[1] = test system: cardiac tissue constructs; test: Inotropic response to ionic calcium (force vs calcium concentration of the bath); assay type: cell-based, rat; conditions: explanted constructs, calcium reintroduced after EGTA removal
Experimental: The effect of the addition of exogenous calcium on contractility was investigated in the constructs according to the present invention. First, CM in the bath was replaced with calcium-free DMEM (Invitrogen). Known volumes of 100 mM ethylene glycol-bis(2-aminoethylether)-N,N,N′,N′-tetraacetic acid (EGTA) were then added to the bath to bind residual stores of calcium in the constructs. At each incremental addition of EGTA, twitch stimulation was applied and the force of contraction was measured. Removal of calcium was considered to be complete when the force of contraction was not detectable and no further EGTA was added. At this point, the calcium-free DMEM in the bath was aspirated and the construct was washed 3 times with fresh calcium-free DMEM. Known volumes of 100 mM calcium were then added and stimulated contraction forces were re-evaluated with each addition. This process was repeated until there was no further increase in the active force with the addition of calcium. The relationship of calcium concentration of the bath to force of contraction was then plotted.
The pCa1/2 of mammalian cardiac tissue has been reported in the range 5.9 to 7.0 (see Bers, Excitation-Contraction Coupling and Cardiac Contractile Force, Norwell: Kluwer Academic Publishers, 2002). […] The inotropic response to external calcium is an indicator of the presence of functional calcium handling machinery.

cardioids = conditions: prior publication US 2004/0132184; cited from earlier work
[2] = test system: cardiac tissue constructs
Experimental: Turning now to FIG. 7, the response to epinephrine was studied in four constructs according to the present invention by adding known concentrations of epinephrine to the CM, with the constructs still attached to the force transducer. […] The concentration of epinephrine was calculated based on the typical dosage given to an adult for cardiac resuscitation. The spontaneous contractility of the constructs was recorded for a period of 5 minutes after the addition of epinephrine.

| SMILES | pCa1/2 [1] | response of cardioids (cardioids) | duration of rapid contraction pattern (resembling tachyarrhythmia) ([2]; 0.2 μg/ml) | effect on spontaneous contractility ([2]; 0.2 μg/ml in culture bath, four constructs) |
| --- | --- | --- | --- | --- |
| [Ca+2] [calcium] | 3.04 | positive inotropy | – | – |
| CNC[C@H](O)c1ccc(O)c(O)c1 [epinephrine] | – | positive chronotropy | 60 to 90 s | re-initiated spontaneous contractions |
